Among the data in ChEMBL document CHEMBL4017444, “Development of N-hydroxycinnamamide-based HDAC inhibitors with improved HDAC inhibitory activity and in vitro antitumor activity” (Bioorg Med Chem, 2017) are IC50 values, retold here.

The nature of assay [1]: Inhibition of HDAC in human HeLa cell nuclear extracts using (Boc-Lys(Ac)-AMC as substrate preincubated for 5 mins followed by substrate addition measured after 30 mins by fluorescence assay. The format is cell-based.
For the next assay, the system named is MOLT-4. As to the kind of experiment: Antiproliferative activity against human MOLT4 cells after 48 hrs by MTT assay. The format is functional, cell-based. The settings on record: MOLT-4, 48 h.
The test system of another assay is PC-3. Description: Antiproliferative activity against human PC3 cells after 48 hrs by MTT assay. The format is functional, cell-based. The settings on record: PC-3, 48 h. (Formazan colour is commonly taken as a measure of viable cells.)
The subject of another assay is K562. As to the kind of experiment: Antiproliferative activity against human K562 cells after 48 hrs by MTT assay. The settings on record: K562, 48 h. The format is functional, cell-based.
The next assay deals with HEL. As to the kind of experiment: Antiproliferative activity against human HEL cells after 48 hrs by MTT assay. The format is functional, cell-based.
For another assay, the system named is HeLa. Description: Antiproliferative activity against human HeLa cells after 48 hrs by MTT assay. In kind it is functional, cell-based.
For assay [2], the target named is T1, Protein deacetylase HDAC6 (Homo sapiens, UniProt Q9UBN7).
T1 sequence (Q9UBN7 whole entry): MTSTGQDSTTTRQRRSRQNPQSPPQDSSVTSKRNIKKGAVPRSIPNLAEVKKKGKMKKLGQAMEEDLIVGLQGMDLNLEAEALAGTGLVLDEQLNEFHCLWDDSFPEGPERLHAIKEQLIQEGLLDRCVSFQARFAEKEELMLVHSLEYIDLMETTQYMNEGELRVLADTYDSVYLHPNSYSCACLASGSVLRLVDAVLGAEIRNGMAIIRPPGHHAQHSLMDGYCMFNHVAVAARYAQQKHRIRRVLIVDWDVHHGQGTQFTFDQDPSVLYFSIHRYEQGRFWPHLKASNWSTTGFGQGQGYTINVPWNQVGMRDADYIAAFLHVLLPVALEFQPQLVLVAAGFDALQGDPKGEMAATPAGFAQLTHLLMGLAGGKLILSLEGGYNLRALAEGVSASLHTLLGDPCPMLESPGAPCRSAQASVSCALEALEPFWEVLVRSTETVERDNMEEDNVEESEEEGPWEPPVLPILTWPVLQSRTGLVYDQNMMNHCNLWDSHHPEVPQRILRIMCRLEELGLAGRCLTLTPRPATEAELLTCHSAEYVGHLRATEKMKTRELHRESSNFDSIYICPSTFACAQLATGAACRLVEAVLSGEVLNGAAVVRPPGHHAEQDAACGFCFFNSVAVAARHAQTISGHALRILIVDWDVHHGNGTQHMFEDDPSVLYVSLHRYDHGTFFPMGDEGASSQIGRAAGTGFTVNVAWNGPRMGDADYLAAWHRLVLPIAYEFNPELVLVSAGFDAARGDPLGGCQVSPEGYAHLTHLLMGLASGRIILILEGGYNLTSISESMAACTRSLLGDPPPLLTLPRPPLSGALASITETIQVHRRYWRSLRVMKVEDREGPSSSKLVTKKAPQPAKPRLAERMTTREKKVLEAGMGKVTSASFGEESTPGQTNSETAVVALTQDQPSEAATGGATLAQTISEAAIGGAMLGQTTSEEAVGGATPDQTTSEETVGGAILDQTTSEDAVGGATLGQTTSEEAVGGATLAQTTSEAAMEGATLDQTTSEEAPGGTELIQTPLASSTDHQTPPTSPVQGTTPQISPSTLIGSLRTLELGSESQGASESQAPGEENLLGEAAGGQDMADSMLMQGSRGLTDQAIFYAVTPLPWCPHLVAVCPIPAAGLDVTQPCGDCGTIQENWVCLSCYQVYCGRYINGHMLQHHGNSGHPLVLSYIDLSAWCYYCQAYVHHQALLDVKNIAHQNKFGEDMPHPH
As to the kind of experiment: Inhibition of HDAC6 (unknown origin) using Ac-Leu-GlyLys(Ac)-AMC as substrate preincubated for 5 mins followed by substrate addition measured after 30 mins by fluorescence assay.

A further assay deals with Histone deacetylase 2 (Homo sapiens, UniProt Q92769). Description: Inhibition of HDAC2 (unknown origin) using Ac-Leu-GlyLys(Ac)-AMC as substrate preincubated for 5 mins followed by substrate addition measured after 30 mins by fluorescence assay.
The target of another assay is Histone deacetylase 3 (Homo sapiens, UniProt O15379). Description: Inhibition of HDAC3 (unknown origin) using Ac-Leu-GlyLys(Ac)-AMC as substrate preincubated for 5 mins followed by substrate addition measured after 30 mins by fluorescence assay.
The target in another assay is Histone deacetylase 1 (Homo sapiens, UniProt Q13547). As to the kind of experiment: Inhibition of HDAC1 (unknown origin) using Ac-Leu-GlyLys(Ac)-AMC as substrate preincubated for 5 mins followed by substrate addition measured after 30 mins by fluorescence assay.

Broadly, the IC50 is the concentration that gives 50% inhibition. Lower therefore signals greater potency.

Sequence of Histone deacetylase 2 (Q92769 whole entry): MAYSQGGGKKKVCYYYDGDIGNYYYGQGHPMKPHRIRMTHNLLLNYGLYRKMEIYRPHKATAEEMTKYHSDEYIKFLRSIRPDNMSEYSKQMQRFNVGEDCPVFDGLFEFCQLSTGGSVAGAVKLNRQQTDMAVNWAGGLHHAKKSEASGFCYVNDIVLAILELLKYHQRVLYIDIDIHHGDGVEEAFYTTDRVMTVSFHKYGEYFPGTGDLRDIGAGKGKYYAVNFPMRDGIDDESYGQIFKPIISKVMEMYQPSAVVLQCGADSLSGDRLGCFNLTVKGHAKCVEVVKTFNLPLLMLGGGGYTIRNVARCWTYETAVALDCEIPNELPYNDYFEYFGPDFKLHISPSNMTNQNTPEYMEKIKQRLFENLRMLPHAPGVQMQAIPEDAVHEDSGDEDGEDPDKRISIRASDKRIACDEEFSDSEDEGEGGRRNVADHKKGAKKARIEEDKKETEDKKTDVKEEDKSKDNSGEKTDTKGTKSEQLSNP
Sequence of Histone deacetylase 3 (O15379 whole entry): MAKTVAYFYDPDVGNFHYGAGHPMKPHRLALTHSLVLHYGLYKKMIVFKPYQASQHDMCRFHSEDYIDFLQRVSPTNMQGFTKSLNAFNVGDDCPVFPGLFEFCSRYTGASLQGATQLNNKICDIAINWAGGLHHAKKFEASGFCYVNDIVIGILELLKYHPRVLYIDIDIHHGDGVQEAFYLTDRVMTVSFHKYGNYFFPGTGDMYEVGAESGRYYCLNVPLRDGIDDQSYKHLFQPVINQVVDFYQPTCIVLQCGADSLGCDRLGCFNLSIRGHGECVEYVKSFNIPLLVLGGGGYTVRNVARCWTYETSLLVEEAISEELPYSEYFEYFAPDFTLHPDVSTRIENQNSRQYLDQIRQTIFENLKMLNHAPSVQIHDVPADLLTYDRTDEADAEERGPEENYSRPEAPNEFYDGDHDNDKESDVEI
Sequence of Histone deacetylase 1 (Q13547 whole entry): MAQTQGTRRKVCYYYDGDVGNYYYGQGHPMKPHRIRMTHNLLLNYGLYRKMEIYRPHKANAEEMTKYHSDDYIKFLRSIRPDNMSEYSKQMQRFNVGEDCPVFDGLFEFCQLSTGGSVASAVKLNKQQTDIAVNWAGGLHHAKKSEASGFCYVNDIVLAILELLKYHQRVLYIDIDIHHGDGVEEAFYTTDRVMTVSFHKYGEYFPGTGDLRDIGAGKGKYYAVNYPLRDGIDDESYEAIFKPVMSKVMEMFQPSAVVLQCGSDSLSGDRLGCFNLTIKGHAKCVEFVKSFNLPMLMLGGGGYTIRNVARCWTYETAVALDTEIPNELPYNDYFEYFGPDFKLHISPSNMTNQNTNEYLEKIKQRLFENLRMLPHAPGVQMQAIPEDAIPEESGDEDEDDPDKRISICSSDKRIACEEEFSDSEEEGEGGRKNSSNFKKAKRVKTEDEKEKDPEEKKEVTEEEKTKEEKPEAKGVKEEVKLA

The compound `COc1cc(/C=C/C(=O)NO)ccc1OC[C@H](Cc1c[nH]c2ccccc12)NC(=O)c1ccccc1[N+](=O)[O-]` gave an IC50 in assay [1] of 75.7 nM.
Still for that read-out and setting: to `COc1cc(/C=C/C(=O)NO)ccc1OC[C@H](Cc1c[nH]c2ccccc12)NC(=O)c1ccc(Cl)cc1` belongs 23.3 nM; to `COc1cc(/C=C/C(=O)NO)ccc1OC[C@H](Cc1c[nH]c2ccccc12)NC(=O)c1ccccc1OC`, 60 nM.
The same measure, in the same setting: to `COc1cc(/C=C/C(=O)NO)ccc1OC[C@H](Cc1c[nH]c2ccccc12)NC(=O)c1ccccc1C` belongs 102 nM; to `COc1cc(/C=C/C(=O)NO)ccc1OC[C@H](Cc1c[nH]c2ccccc12)NC(=O)c1cccc(F)c1`, 60 nM; to `COc1cc(/C=C/C(=O)NO)ccc1OC[C@H](Cc1c[nH]c2ccccc12)NC(=O)c1cccc(Br)c1`, 19.5 nM.
Still for that read-out and setting: in the case of `COc1cc(/C=C/C(=O)NO)ccc1OC[C@H](Cc1c[nH]c2ccccc12)NC(=O)c1ccc(NC(C)=O)cc1O` it was 47.1 nM.
With `COc1cc(/C=C/C(=O)NO)ccc1OC[C@H](Cc1c[nH]c2ccccc12)NC(=O)Cc1ccccc1`, the IC50 in [1] came to 54.8 nM.
The same measure, in the same setting: to `COc1cc(/C=C/C(=O)NO)ccc1OC[C@H](Cc1c[nH]c2ccccc12)NC(=O)c1ccccc1Cl` belongs 22.5 nM.
In assay [1], `COc1cc(/C=C/C(=O)NO)ccc1OC[C@H](Cc1c[nH]c2ccccc12)NC(=O)c1ccccc1Br` registered an IC50 of 62.2 nM.
For `COc1cc(/C=C/C(=O)NO)ccc1OC[C@H](Cc1c[nH]c2ccccc12)NC(=O)c1ccc(Br)cc1`, the IC50 in the assay on MOLT-4 stood at 60 nM; in the assay on PC-3, 1250 nM; in assay [1] it was 12.1 nM; in the assay on K562 it was 510 nM; with HEL it was 210 nM; with HeLa, 580 nM.
As for `COc1cc(/C=C/C(=O)NO)ccc1OC[C@H](Cc1c[nH]c2ccccc12)NC(=O)CCCc1ccccc1`, in assay [1], the IC50 is 42.4 nM.
For the compound `COc1cc(/C=C/C(=O)NO)ccc1OC[C@H](Cc1c[nH]c2ccccc12)NC(=O)c1ccc([N+](=O)[O-])cc1`, half-maximal inhibition in [1] (IC50) required 60.7 nM.
Still for that read-out and setting: in the case of `COc1cc(/C=C/C(=O)NO)ccc1OC[C@H](Cc1c[nH]c2ccccc12)NC(=O)c1ccc(F)cc1` it was 48.6 nM.
For the compound `COc1cc(/C=C/C(=O)NO)ccc1OC[C@H](Cc1c[nH]c2ccccc12)NC(=O)c1ccc(C)cc1`, the IC50 with MOLT-4 came out at 40 nM; with PC-3, 1090 nM; in [1] it was 8.1 nM; in the assay on K562 it was 320 nM; with HEL, 150 nM; in the assay with HeLa it was 310 nM.
Consider `COc1cc(/C=C/C(=O)NO)ccc1OC[C@H](Cc1c[nH]c2ccccc12)NC(=O)c1cccc([N+](=O)[O-])c1`, for which the IC50 in assay [1] stood at 34.4 nM.
On the same count and under the same terms, in the case of `COc1cc(/C=C/C(=O)NO)ccc1OC[C@H](Cc1c[nH]c2ccccc12)NC(=O)c1ccc(Cl)cc1Cl` it was 95 nM; in that of `COc1cc(/C=C/C(=O)NO)ccc1OC[C@H](Cc1c[nH]c2ccccc12)NC(=O)c1ccccc1`, 15.8 nM.
On to `COc1cc(/C=C/C(=O)NO)ccc1OC[C@H](Cc1c[nH]c2ccccc12)NC(=O)CCc1ccccc1`, for which the IC50 in assay [1] stood at 21.7 nM.
Turning to `COc1cc(/C=C/C(=O)NO)ccc1OC[C@H](Cc1c[nH]c2ccccc12)NC(=O)c1cccc(C)c1`, the IC50 in assay [1] was 24.2 nM.
Regarding `COc1ccc(C(=O)N[C@H](COc2ccc(/C=C/C(=O)NO)cc2OC)Cc2c[nH]c3ccccc23)cc1`, the IC50 was found to be 60 nM in the assay on MOLT-4; 1000 nM with PC-3; 9.6 nM in [1]; 280 nM with K562; 87 nM in assay [2]; 59.5 nM against Histone deacetylase 2. Further, the IC50 was found to be 130 nM in the assay on HEL, 430 nM in the assay on HeLa, 7.1 nM against Histone deacetylase 3 and 17.5 nM against Histone deacetylase 1.
In the case of `COc1cc(/C=C/C(=O)NO)ccc1OC[C@H](Cc1c[nH]c2ccccc12)NC(=O)c1ccccc1F`, the IC50 in assay [1] amounted to 76.5 nM.
Still for that read-out and setting: in the case of `COc1cccc(C(=O)N[C@H](COc2ccc(/C=C/C(=O)NO)cc2OC)Cc2c[nH]c3ccccc23)c1` it was 14.1 nM; in that of `COc1cc(/C=C/C(=O)NO)ccc1OC[C@H](Cc1c[nH]c2ccccc12)NC(=O)c1ccc(Br)cc1Cl`, 114 nM.
For `COc1cc(/C=C/C(=O)NO)ccc1OC[C@H](Cc1c[nH]c2ccccc12)NC(=O)c1cccc(Cl)c1`, the IC50 stood at 60 nM in the assay with MOLT-4; 1000 nM in the assay on PC-3; 14.4 nM in assay [1]; 280 nM with K562; 130 nM in the assay with HEL; 430 nM in the assay with HeLa.
